{"source": "patent US11980596B2", "about": "(priority 2017, dated 2024)", "test_system": "patients with treatment-resistant depression (TRD)", "assay": "Adverse events (Example 7)", "format": "in vivo, human", "description": "Adverse events were monitored throughout the study. Other safety assessments (i.e., laboratory tests, vital signs, physical examination) were performed at pre-specified time points. Vital signs, the Clinician Administered Dissociative States Scale (CADSS; Bremner, “Measurement of dissociative states with the clinician-administered dissociative states scale (CADSS)”, J. Traumatic Stress, 1998, 11(1):125-136), and the 4-item positive symptom subscale from the Brief Psychiatric Rating Scale (BPRS; Overall, “The Brief Psychiatric Rating Scale. Psychological Reports”, 1962, 10:799-812) were assessed pre-dose, at 40 minutes, and 2 hours post-dose.\nSafety data were analyzed in Period 1, Period 2, double-blind, and open-label data sets, for all subjects receiving at least 1 dose of study medication.", "key": {"[1]": {"details": "double-blind, esketamine 84 mg, N = 17"}, "[2]": {"details": "double-blind, esketamine Total, N = 56"}}, "data": [{"molecule": "CN[C@]1(c2ccccc2Cl)CCCCC1=O", "note": "[esketamine, (S)-2-(2-chlorophenyl)-2-(methylamino)cyclohexanone]", "values": [{"measurement": "Dizziness, % of participants", "setting": "[1]", "value": "(47) %"}, {"measurement": "Dizziness, number of participants", "setting": "[1]", "value": 8}, {"measurement": "Dysgeusia, % of participants", "setting": "[1]", "value": "(29) %"}, {"measurement": "Dysgeusia, number of participants", "setting": "[1]", "value": 5}, {"measurement": "Feeling abnormal, % of participants", "setting": "[1]", "value": "(6) %"}, {"measurement": "Feeling abnormal, number of participants", "setting": "[1]", "value": 1}, {"measurement": "Headache, % of participants", "setting": "[1]", "value": "(18) %"}, {"measurement": "Headache, number of participants", "setting": "[1]", "value": 3}, {"measurement": "Hypersomnia, number of participants", "setting": "[1]", "value": 0}, {"measurement": "Hypertension, % of participants", "setting": "[1]", "value": "(6) %"}, {"measurement": "Hypertension, number of participants", "setting": "[1]", "value": 1}, {"measurement": "Hypoesthesia oral, % of participants", "setting": "[1]", "value": "(12) %"}, {"measurement": "Hypoesthesia oral, number of participants", "setting": "[1]", "value": 2}, {"measurement": "Insomnia, number of participants", "setting": "[1]", "value": 0}, {"measurement": "Nasal discomfort, % of participants", "setting": "[1]", "value": "(6) %"}, {"measurement": "Nasal discomfort, number of participants", "setting": "[1]", "value": 1}, {"measurement": "Nausea, % of participants", "setting": "[1]", "value": "(24) %"}, {"measurement": "Nausea, number of participants", "setting": "[1]", "value": 4}, {"measurement": "Oropharyngeal pain, % of participants", "setting": "[1]", "value": "(12) %"}, {"measurement": "Oropharyngeal pain, number of participants", "setting": "[1]", "value": 2}, {"measurement": "Polyuria, number of participants", "setting": "[1]", "value": 0}, {"measurement": "Sedation, % of participants", "setting": "[1]", "value": "(6) %"}, {"measurement": "Sedation, number of participants", "setting": "[1]", "value": 1}, {"measurement": "Throat irritation, % of participants", "setting": "[1]", "value": "(12) %"}, {"measurement": "Throat irritation, number of participants", "setting": "[1]", "value": 2}, {"measurement": "Total with events, % of participants", "setting": "[1]", "value": "(88) %"}, {"measurement": "Total with events, number of participants", "setting": "[1]", "value": 15}, {"measurement": "Tunnel vision, % of participants", "setting": "[1]", "value": "(12) %"}, {"measurement": "Tunnel vision, number of participants", "setting": "[1]", "value": 2}, {"measurement": "Vertigo, % of participants", "setting": "[1]", "value": "(6) %"}, {"measurement": "Vertigo, number of participants", "setting": "[1]", "value": 1}, {"measurement": "Vision blurred, % of participants", "setting": "[1]", "value": "(12) %"}, {"measurement": "Vision blurred, number of participants", "setting": "[1]", "value": 2}, {"measurement": "Dissociation, % of participants", "setting": "[2]", "value": "(20) %"}, {"measurement": "Dissociation, number of participants", "setting": "[2]", "value": 11}, {"measurement": "Dissociative disorder, % of participants", "setting": "[2]", "value": "(13) %"}, {"measurement": "Dissociative disorder, number of participants", "setting": "[2]", "value": 7}, {"measurement": "Dizziness, % of participants", "setting": "[2]", "value": "(36) %"}, {"measurement": "Dizziness, number of participants", "setting": "[2]", "value": 20}, {"measurement": "Dysgeusia, % of participants", "setting": "[2]", "value": "(18) %"}, {"measurement": "Dysgeusia, number of participants", "setting": "[2]", "value": 10}, {"measurement": "Feeling abnormal, % of participants", "setting": "[2]", "value": "(7) %"}, {"measurement": "Feeling abnormal, number of participants", "setting": "[2]", "value": 4}, {"measurement": "Headache, % of participants", "setting": "[2]", "value": "(21) %"}, {"measurement": "Headache, number of participants", "setting": "[2]", "value": 12}, {"measurement": "Hypersomnia, % of participants", "setting": "[2]", "value": "(4) %"}, {"measurement": "Hypersomnia, number of participants", "setting": "[2]", "value": 2}, {"measurement": "Hypertension, % of participants", "setting": "[2]", "value": "(5) %"}, {"measurement": "Hypertension, number of participants", "setting": "[2]", "value": 3}, {"measurement": "Hypoesthesia oral, % of participants", "setting": "[2]", "value": "(13) %"}, {"measurement": "Hypoesthesia oral, number of participants", "setting": "[2]", "value": 7}, {"measurement": "Insomnia, % of participants", "setting": "[2]", "value": "(4) %"}, {"measurement": "Insomnia, number of participants", "setting": "[2]", "value": 2}, {"measurement": "Nasal discomfort, % of participants", "setting": "[2]", "value": "(5) %"}, {"measurement": "Nasal discomfort, number of participants", "setting": "[2]", "value": 3}, {"measurement": "Nausea, % of participants", "setting": "[2]", "value": "(18) %"}, {"measurement": "Nausea, number of participants", "setting": "[2]", "value": 10}, {"measurement": "Oropharyngeal pain, % of participants", "setting": "[2]", "value": "(5) %"}, {"measurement": "Oropharyngeal pain, number of participants", "setting": "[2]", "value": 3}, {"measurement": "Polyuria, % of participants", "setting": "[2]", "value": "(4) %"}, {"measurement": "Polyuria, number of participants", "setting": "[2]", "value": 2}, {"measurement": "Sedation, % of participants", "setting": "[2]", "value": "(7) %"}, {"measurement": "Sedation, number of participants", "setting": "[2]", "value": 4}, {"measurement": "Throat irritation, % of participants", "setting": "[2]", "value": "(5) %"}, {"measurement": "Throat irritation, number of participants", "setting": "[2]", "value": 3}, {"measurement": "Total with events, % of participants", "setting": "[2]", "value": "(75) %"}, {"measurement": "Total with events, number of participants", "setting": "[2]", "value": 42}, {"measurement": "Tunnel vision, % of participants", "setting": "[2]", "value": "(4) %"}, {"measurement": "Tunnel vision, number of participants", "setting": "[2]", "value": 2}, {"measurement": "Vertigo, % of participants", "setting": "[2]", "value": "(7) %"}, {"measurement": "Vertigo, number of participants", "setting": "[2]", "value": 4}, {"measurement": "Vision blurred, % of participants", "setting": "[2]", "value": "(4) %"}, {"measurement": "Vision blurred, number of participants", "setting": "[2]", "value": 2}, {"measurement": "Adverse event: dizziness", "setting": "open-label phase", "value": 38.6, "unit": "%"}, {"measurement": "Adverse event: dysgeusia", "setting": "open-label phase", "value": 22.8, "unit": "%"}, {"measurement": "Adverse event: headache", "setting": "open-label phase", "value": 14.0, "unit": "%"}, {"measurement": "Adverse event: nausea", "setting": "open-label phase", "value": 15.8, "unit": "%"}, {"measurement": "Adverse event: sedation", "setting": "open-label phase", "value": 10.5, "unit": "%"}]}]}
